Data from patent publication US5830903A, “Triazole substituted quinoline derivatives for gastrointestinal treat-treatment” (Alkaloida Chemical Co., Ltd., priority 1993, dated 1998).
Marks after values point to notes of the source that are not given here.

What was measured:
[1] = system: lesions caused by the NSAID naproxen; assay: Naproxen-induced gastric erosions, test substance 1 hour after naproxen; assay type: in vivo, WISTAR rats; settings: n = 7
Description: (§1) Administration of the test substances followed 1 hour after injection. After 4 hours the animals were over-anesthesized with ether and the changes (erosions) were evaluated as in Example I.1. The size of the lesions was characterized by way of the ulcer index.

[2] = system: ulcers induced by reserpine; assay: Reserpine induced ulcers; assay type: in vivo, female OFA rats; settings: 40 mg/kg p.o.; reserpine 5 mg/kg s.c.; 18 h
Description: Female OFA rats of 130-160 g weight, starved for 24 hours, were treated at the same time perorally with 40 mg/kg doses of the substances to be tested and with 5 mg/kg s.c. doses of reserpine. After 18 hours the animals were over-anesthesized and the removed stomachs were investigated under stereomicroscope using a 8-fold enlargement. The number of ulcers was counted and their size was evaluated using 0-0.5-1-2-4-8-16-32 scores. The number of animals was 5 for each dose.

[3] = system: basic gastric acid secretion; assay: Basic gastric acid secretion in Shay rats (pylorus ligation); assay type: in vivo; settings: for acidity μEqu/ml / volume: 4 h
Description: The pilorus of Shay rats of 150-170 g weight was tied in ether narcosis /Gastroenterology 5,43,1945/. The test substances were added on the course of operation intra-duodenally. Immediately after operation each rat obtained 0.50 ml s.c. of a physiological salt solution for hydration. After 4 hours the rats were over-anesthesized, the stomach liquid was collected, centrifugated and the volume determined. Acidity of the secretion was determined with 0.1N aqueous sodium hydroxide in the presence of a Tobfler reagent.

[4] = Acute toxicity in rats; settings: rat, in vivo, po, per os, 14 days
Description: (§2) To determine acute toxicity the test substances were administered in increasing doses to CFLP male mice (18-20 g) and to male Wistar rats (150-160 g). The LD50 values were calculated after 14 days of observation according to Litchfield and Wilcoxon.

[5] = system: alcohol induced increase of gastric glandular capillary permeability; assay: Alcohol induced increase of gastric glandular capillary permeability; assay type: in vivo, rats; settings: for Evans-blue: p < 0.05
Description: After 13 minutes 1 ml of 100% ethanol was added perorally and after further 2 minutes the stomachs were removed and their weights measured. […]

[6] = system: lesions caused by intomethacin; assay: Indomethacin-induced gastric lesions; assay type: in vivo, female OFA-rats; settings: Rattus norvegicus, po, 60 min before 20 mg/kg indomethacin; 6 h; from ulcer index; confidence limits 95%; read-out: ED50 mg/kg (p.o.)
Description: The compounds were administered in a volume of 0.5 ml/100 g in a suspension prepared in water with 2-4% Tween-80. After 6 hours the animals were over-anesthesized and their stomachs were opened along the greater curvature. The preparations were investigated by stereomicroscopy using an 8-fold enlargement. The number, size and incidence of erosions and ulcers was noted and compared with the control group treated with the carrier only.
The size of the ulcers was determined on the basis of the following score:
1: ulcer or erosion of the size of 1-2 mm;
2: ulcer or erosion of the size of 2-3 mm;
3: ulcer or erosion of the size of 3-4 mm;
4: ulcer longer than 4 mm;
5: ulcer longer and broader than 4 mm.
The ED50 values were calculated on the basis of ulcer-indexes:
ulcer index=/severeity of lesion x number of lesions/number of animals /n/

[7] = system: histamine stimulated hydrochlorid acid secretion; assay: Histamine stimulated gastric acid secretion in Shay rats; assay type: in vivo; settings: for acid secretion μEqu/4^h: p < 0.01
Description: The test substances were added on the course of operation intra-duodenally. Immediately after operation each rat obtained 0.50 ml s.c. of a physiological salt solution for hydration. After 4 hours the rats were over-anesthesized, the stomach liquid was collected, centrifugated and the volume determined. […] Measurement of stimulated secretion of gastric acid was also carried out according to the above method.

[8] = system: stress ulcer caused by immersion; assay: Stress ulcer caused by immersion; assay type: in vivo, Wistar rats
Description: 30 minutes after peroral treatment with the test substance, […]. After seven hours the glandular lesions appearing in the stomach were evaluated according to the score described in Example I.1.

[9] = system: gastric blood-supply; assay: Gastric blood-supply, Rb^86 isotope method (Sapirstain); assay type: in vivo, Wistar female rats; settings: 100 mg/kg p.o., n = 11, ± SE
Description: To investigate influence of gastric blood-supply the tests were carried out according to the method of Sapirstain using Rb^86 isotopes (Circ.Res.4, 689, 1956; Am. J. Physiol. 193. 161,1958). The test substances were administered perorally 2 hours before the experiment started and the degree of blood flow was determined in ml/min/g values. In the experiments the stomachs of Wistar female rats were divided into three segments i.e. pre-stomach, corpus and anthrum.

[10] = Acute toxicity in mice; settings: mouse, in vivo, po, per os, 14 days
Description: as §2

[11] = system: lesions caused by the NSAID piroxicam; assay: Piroxicam-induced gastric erosions, test substance 1 hour after piroxicam; assay type: in vivo, WISTAR rats; settings: n = 7
Description: as §1

[12] = system: lesions induced with hydrochloric acid and ethanol; assay: Gastric haemorrhages induced by hydrochloric acid in ethanol (cytoprotection); assay type: in vivo, female rats; settings: for average length of haemmorrhages, change in %: treated vs control
Description: The volume of treatment was 0.5 ml/100 g. […] The average degree of haemorrhages of the treated groups was compared to the control groups treated with the vehicle only. Number of animals was 6-18 in each group.

[13] = naproxen 75 mg/kg po. + 20 mg/kg po.
[14] = histamine 10 mg/kg s.c. + 5 mg/kg i.d., p < 0.05
[15] = 25 mg/kg p.o., n = 10, p < 0.01

c1ccc2c(-n3cncn3)ccnc2c1 [Substance 1, 4-(1H-1,2,4-triazole-1-yl)-quinoline]
inhibition % [1, 13]: 39%
ulcus index ± SEM [1, 13]: 15.6 ± 6.4
inhibition % ([1]; naproxen, 30 mg/kg po.): 95%
ulcus index ± SEM ([1]; naproxen, 30 mg/kg po., p < 0.01): 1.2 ± 0.5
number of ulcers, %change compared with control [2]: +4%
severity of ulcers, %change compared with control [2]: +9%
ulcers per treated [2]: 5/5
acidity μEqu/ml ([3]; dose 5 i.d.): 105 ± 5 μEqu/ml
volume ([3]; dose 5 i.d., p < 0.05): 1.4 ± 1.24 mL
acid secretion μEqu/4^h ([3]; dose 5 i.d., p < 0.05): 147.0 ± 0.19 μEqu/4^h
acidity μEqu/ml ([3]; dose 10 i.d., not possible to titrate part of the secretion because of small volume): 61 ± 5 μEqu/ml
volume ([3]; dose 10 i.d., p < 0.01): 0.58 ± 0.1 mL
acid secretion μEqu/4^h ([3]; dose 10 i.d., p < 0.01): 42.0 ± 0.3 μEqu/4^h
LD50 at 336 h [4]: 560 mg/kg
alcohol-induced lesions (in words) ([5]; 10 and 20 mg/kg): alcohol-induced lesions are reduced
stomach ([5]; 100% ethanol + 10 mg/kg): 0.91 ± 0.1 g
Evans-blue ([5]; 100% ethanol + 10 mg/kg): 4.55 ± 0.3 µg/g
stomach ([5]; 100% ethanol + 20 mg/kg): 0.93 ± 0.1 g
Evans-blue ([5]; 100% ethanol + 20 mg/kg): 4.4 ± 0.23 µg/g
ED50 [6]: 13 mg/kg
acid secretion μEqu/4^h ([7]; histamine 10 mg/kg s.c. + 5 mg/kg i.d.): 180 ± 12 μEqu/4^h
acidity μEqu/ml [7, 14]: 105 ± 10 μEqu/ml
volume/4^h [7, 14]: 1.7 ± 0.2 mL
acid secretion μEqu/4^h ([7]; histamine s.c. + 10 mg/kg i.d.): 111 ± 9 μEqu/4^h
acidity μEqu/ml ([7]; histamine s.c. + 10 mg/kg i.d., p < 0.05): 123 ± 8 μEqu/ml
erosion inhibition % ([8]; 10 mg/kg p.o., n = 7): 21%
erosion ulcus-index mm ([8]; 10 mg/kg p.o., n = 7): 33.6 ± 10.2 mm
hyperemia inhibition % ([8]; 10 mg/kg p.o., n = 7): 29%
hyperemia ulcer-index mm ([8]; 10 mg/kg p.o., n = 7): 64.3 ± 8.6 mm
erosion ulcus-index mm ([8]; 25 mg/kg p.o., n = 10): 12.1 ± 3.6 mm
hyperemia ulcer-index mm ([8]; 25 mg/kg p.o., n = 10): 35.8 ± 9.4 mm
erosion inhibition % [8, 15]: 71%
hyperemia inhibition % [8, 15]: 55%
erosion ulcus-index mm ([8]; 50 mg/kg p.o., n = 7): 5.7 ± 1.5 mm
hyperemia ulcer-index mm ([8]; 50 mg/kg p.o., n = 7): 11.4 ± 2.8 mm
erosion inhibition % ([8]; 50 mg/kg p.o., n = 7, p < 0.01): 87%
hyperemia inhibition % ([8]; 50 mg/kg p.o., n = 7, p < 0.01): 85%
inhibition of hyperemia and erosion (in words) ([8]; substance 1 at 50 mg/kg p.o., cimetidine): significally inhibit hyperemia and erosion
blood flow, pre-stomach ([9]; control 0.23 ± 0.03): 0.19 ± 0.01 mL/min/g
blood flow, corpus ([9]; control 0.51 ± 0.03, p < 0.02): 0.70 ± 0.09 mL/min/g
blood flow, anthrum ([9]; control 0.71 ± 0.07): 1.01 ± 0.07 mL/min/g
LD50 at 336 h [10]: 840 mg/kg
inhibition % ([11]; piroxicam 60 mg/kg po. + 20 mg/kg po.): 84%
ulcus index ± SEM ([11]; piroxicam 60 mg/kg po. + 20 mg/kg po., p < 0.05): 3.8 ± 0.4
inhibition % ([11]; piroxicam, 30 mg/kg po.): 93%
ulcus index ± SEM ([11]; piroxicam, 30 mg/kg po., p < 0.01): 1.8 ± 0.5
average length of haemmorrhages, treated ([12]; 2.3 mg/kg p.o., n = 12, control 95.7 ± 9.4): 91.0 ± 9.4 mm
average length of haemmorrhages, change in % ([12]; 2.3 mg/kg p.o.): -4%
average length of haemmorrhages, treated ([12]; 5.0 mg/kg p.o., n = 18, control 92.9 ± 6.3): 39.7 ± 8.1 mm
average length of haemmorrhages, change in % ([12]; 5.0 mg/kg p.o.): -57%
average length of haemmorrhages, treated ([12]; 10.0 mg/kg p.o., n = 18, control 61.3 ± 9.8): 14.2 ± 7.4 mm
average length of haemmorrhages, change in % ([12]; 10.0 mg/kg p.o.): -77%
